Holding throughout (type): biochemical
Test [1] concerns the target T1, propionyl-CoA carboxylase from Methylobacterium extorquens (PCCMe) variant PCCMe_D407I_Y143H (pccA SEQ ID NO: 2; pccB_D407I_Y143H SEQ ID NO: 6) (Methylorubrum extorquens, UniProt C5AP75+C5AWU5, D407I/Y143H).
T1 sequence (C5AP75 1-510 Y143H/D407I): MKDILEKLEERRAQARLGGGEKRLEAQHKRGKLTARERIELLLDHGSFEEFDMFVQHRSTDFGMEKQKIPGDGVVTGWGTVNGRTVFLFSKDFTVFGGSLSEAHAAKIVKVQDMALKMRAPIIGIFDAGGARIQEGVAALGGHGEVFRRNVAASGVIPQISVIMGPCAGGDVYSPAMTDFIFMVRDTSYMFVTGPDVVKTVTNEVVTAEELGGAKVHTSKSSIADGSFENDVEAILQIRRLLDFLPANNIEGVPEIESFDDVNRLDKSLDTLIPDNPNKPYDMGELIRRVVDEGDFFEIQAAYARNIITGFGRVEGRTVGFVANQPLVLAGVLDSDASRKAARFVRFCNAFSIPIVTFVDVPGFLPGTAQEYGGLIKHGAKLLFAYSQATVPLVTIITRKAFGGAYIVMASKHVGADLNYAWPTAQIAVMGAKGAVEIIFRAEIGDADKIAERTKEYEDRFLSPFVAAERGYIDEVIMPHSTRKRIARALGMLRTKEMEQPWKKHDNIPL
T1 sequence (C5AWU5 1-667): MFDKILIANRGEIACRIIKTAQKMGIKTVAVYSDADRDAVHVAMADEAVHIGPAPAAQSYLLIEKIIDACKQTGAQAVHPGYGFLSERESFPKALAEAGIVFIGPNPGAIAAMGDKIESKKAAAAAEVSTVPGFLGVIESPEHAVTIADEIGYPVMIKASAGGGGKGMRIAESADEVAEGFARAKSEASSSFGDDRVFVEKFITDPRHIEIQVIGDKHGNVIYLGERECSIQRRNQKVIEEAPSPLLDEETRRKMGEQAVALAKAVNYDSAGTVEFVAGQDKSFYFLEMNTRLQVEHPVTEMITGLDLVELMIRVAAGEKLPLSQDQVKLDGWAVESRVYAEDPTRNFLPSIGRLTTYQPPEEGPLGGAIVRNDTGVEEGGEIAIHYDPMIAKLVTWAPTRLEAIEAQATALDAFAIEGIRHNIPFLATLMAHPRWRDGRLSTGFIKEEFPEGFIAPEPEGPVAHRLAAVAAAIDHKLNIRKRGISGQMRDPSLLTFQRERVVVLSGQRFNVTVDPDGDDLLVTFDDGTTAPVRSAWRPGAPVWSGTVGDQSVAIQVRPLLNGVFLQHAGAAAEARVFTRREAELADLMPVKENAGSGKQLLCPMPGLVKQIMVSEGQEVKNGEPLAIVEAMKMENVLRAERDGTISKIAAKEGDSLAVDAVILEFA
In words: PCCMe_D407I_Y143H activity for conversion of glycolyl-CoA into tartronyl-CoA (reaction 3#), coupled ATP hydrolysis (PK/LDH) assay. The following applies: 37° C., pH 7.7, ATP hydrolysis assay, 0.125-3 mM glycolyl-CoA; n=2.

For test [2], the target named is T2, malonyl-CoA reductase from Chloroflexus aurantiacus (MCRCa), SEQ ID NO: 8 (Chloroflexus aurantiacus, UniProt Q6QQP7).
T2 sequence (Q6QQP7 1-1220): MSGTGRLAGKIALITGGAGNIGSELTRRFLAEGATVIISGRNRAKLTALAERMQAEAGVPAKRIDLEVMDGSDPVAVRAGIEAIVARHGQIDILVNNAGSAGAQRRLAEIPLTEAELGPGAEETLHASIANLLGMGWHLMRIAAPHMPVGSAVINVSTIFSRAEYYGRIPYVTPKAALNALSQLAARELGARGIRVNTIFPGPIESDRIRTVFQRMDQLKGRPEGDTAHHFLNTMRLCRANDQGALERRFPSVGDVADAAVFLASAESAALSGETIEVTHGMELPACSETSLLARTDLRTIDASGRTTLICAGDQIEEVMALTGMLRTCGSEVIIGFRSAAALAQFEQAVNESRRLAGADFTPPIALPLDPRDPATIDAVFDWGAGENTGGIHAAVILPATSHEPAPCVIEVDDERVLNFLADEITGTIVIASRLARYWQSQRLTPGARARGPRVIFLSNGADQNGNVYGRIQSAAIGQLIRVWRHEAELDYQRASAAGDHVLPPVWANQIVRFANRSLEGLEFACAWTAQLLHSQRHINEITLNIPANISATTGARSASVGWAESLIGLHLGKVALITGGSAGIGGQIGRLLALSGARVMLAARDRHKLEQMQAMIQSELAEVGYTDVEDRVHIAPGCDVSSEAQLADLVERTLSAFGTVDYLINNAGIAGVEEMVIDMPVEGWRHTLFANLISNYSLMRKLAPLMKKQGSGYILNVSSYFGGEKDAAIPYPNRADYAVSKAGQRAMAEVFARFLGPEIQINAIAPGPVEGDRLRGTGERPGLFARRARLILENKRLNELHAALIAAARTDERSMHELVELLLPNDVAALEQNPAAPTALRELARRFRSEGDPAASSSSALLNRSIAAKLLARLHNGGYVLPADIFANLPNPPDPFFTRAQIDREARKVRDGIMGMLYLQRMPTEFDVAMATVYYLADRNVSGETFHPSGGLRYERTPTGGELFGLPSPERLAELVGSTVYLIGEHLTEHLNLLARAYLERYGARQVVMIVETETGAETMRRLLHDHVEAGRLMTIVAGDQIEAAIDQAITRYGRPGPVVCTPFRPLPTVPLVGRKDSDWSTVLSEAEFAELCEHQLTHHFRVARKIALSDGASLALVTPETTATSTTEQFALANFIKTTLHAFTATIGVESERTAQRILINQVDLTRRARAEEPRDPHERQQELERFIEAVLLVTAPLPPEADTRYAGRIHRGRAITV
In words: MCRCa activity for conversion of tartronyl-CoA into glycerate (reactions 4# and 5), NADPH oxidation. The following applies: FIG. 8D and Table 5; 37° C., pH 7.5, 0.4 mM NADPH; n=3. The method, then: For the heterologous expression of the MCRCa protein (amino acid sequence is shown in SEQ ID NO: 8; corresponding nucleic acid sequence encoding the protein is depicted in SEQ ID NO: 7) the previously described pTRC-MCRCa plasmid (Kröger et al., 2011, Analytical biochemistry, 411(1), 100-105) was employed.
Cells were harvested at 10 000×g for 10 min and cell pellets were stored at −80° C. until purification of enzymes. Cell pellets of MCRCa and MCRE overexpressing cells were resuspended in two-fold volume of buffer AStrep (50 mM Tris/HCl, 150 mM NaCl, pH 7.8) containing 0.1 mg mL^−1 DNAse I. The cell suspension was passed through a French pressure cell twice at a pressure of 137 MPa and centrifuged at 100 000×g and 4° C. for 1 h. The supernatant was filtered through a 0.45 μm syringe filter and loaded at a flow rate of 1 mL min^−1 onto a 1 mL StrepTrap™ HP column (GE healthcare) which had previously been equilibrated with 5 column volumes of buffer AStrep. The column was washed with 20 column volumes of buffer AStrep and the protein was eluted with buffer AStrep containing 3 mM desthiobiotin. […]
The kinetics of the MCRCa enzyme for enzymatically converting the substrate tartonyl-CoA into glycerate (via reactions 4# and 5 both catalyzed by MCRCa) were determined spectrophotometrically at 365 nm following the oxidation of NADPH. […]

The test system of test [3] is malonyl-CoA reductase from Erythrobacter sp. NAP1 (MCRE), SEQ ID NO: 10. In words: MCRE activity for conversion of tartronyl-CoA into glycerate (reactions 4# and 5), NADPH oxidation. As to conditions: 37° C., assay as for MCRCa; n=2.

`CC(C)(COP(=O)(O)OP(=O)(O)OC[C@H]1O[C@@H](n2cnc3c(N)ncnc32)[C@H](O)[C@@H]1OP(=O)(O)O)[C@@H](O)C(=O)NCCC(=O)NCCSC(=O)CO` [glycolyl-CoA] returned a vmax in test [1] of 1.5 ± 0.09 U mg^−1.

For `CC(C)(COP(=O)(O)OP(=O)(O)OC[C@H]1O[C@@H](n2cnc3c(N)ncnc32)[C@H](O)[C@@H]1OP(=O)(O)O)[C@@H](O)C(=O)NCCC(=O)NCCSC(=O)C(O)C(=O)O` (stereo partly shown) [tartronyl-CoA], the results for the vmax in test [2] and in test [3] were 0.6 ± 0.01 U mg^−1 and 0.23±0.01 U mg^−1, respectively. Also, in test [3], the Km was 180 ± 40 µM.
